The text below walks through data of article PMC12705613 (Frontiers in Microbiology, 2025).

The test system of one data set is gut microbiota from SHRs. Kind of data set: Anaerobic incubation of drug with fecal gut microbiota from SHRs. Format: in vitro ADME, rat. Particulars: for Qualitative analysis: metabolism to other compounds: SHR gut microbiota in vitro, UHPLC-Q-TOF-MS; for Remaining content: SHR gut microbiota, 40 μM drug, anaerobic 37 °C, mGAM. The method, then:
(§1) Fresh fecal samples from WKYs and SHRs were collected and immediately transferred to an anaerobic chamber (90% N₂, 5% CO₂, 5% H₂). Fecal suspensions were prepared by homogenizing 1 g of feces in 15 mL of sterile phosphate-buffered saline containing 0.1% L-cysteine. […] Bacteria-free controls contained equivalent drug volumes consistently. […] Drug remaining content and non-target metabolites screen were detected by ultra-high performance liquid chromatography coupled with triple quadrupole mass spectrometry (UHPLC-TQ-MS) and ultra-high performance liquid chromatography with quadrupole time-of-flight mass spectrometry (UHPLC-Q-TOF-MS), respectively. The sample preparation process can be found in the Supplementary material. For UHPLC-Q-TOF-MS analysis, the MS parameters and IDA criteria can be seen in Supplementary Table S1.
(§2) The sample processing procedures were tailored to align with the experimental objectives. For qualitative metabolite profiling, supernatants from the co-incubation of bacteria and drugs were collected at designated time points, filtered using a 0.22 μm membrane, lyophilized, and reconstituted in 200 μL of methanol. After vortexing and centrifuging for 10 minutes at 4°C and 12,000 rpm, the supernatant was transferred to an LC vial, and 5 μL aliquot was injected into the UHPLC-Q-TOF-MS/MS. For quantitative analysis, 100 μL aliquots were taken from the co-incubation supernatant and spiked with 1,000 μL of methanol containing 500 ng/mL of irbesartan. Following one minute of vortexing and centrifugation at 12,000 rpm for 10 minutes, the resulting supernatant was transferred to an LC vial, and a 5μL aliquot was injected into the UHPLC-TQ-MS/MS.

A further data set relates to gut microbiota from WKYs. Kind of data set: Anaerobic incubation of drug with fecal gut microbiota from WKYs. Format: in vitro ADME, rat. The following applies: for Qualitative analysis: metabolism to other compounds: WKY gut microbiota in vitro, UHPLC-Q-TOF-MS; for Remaining content: WKY gut microbiota, 40 μM drug, anaerobic 37 °C, mGAM. The protocol:
as §1, §2

For data set [1] the following is noted: after administration; ref Zhou et al., 2009; Mukai et al., 2015; cited from earlier work.
A further data set deals with human intestinal flora. More on the design: method as in Zimmermann et al., 2019. Particulars: in vitro; fecal samples from healthy individuals; ref Zimmermann et al., 2019; cited from earlier work.

For `CCCCc1nc(Cl)c(C(=O)O)n1Cc1ccc(-c2ccccc2-c2nnn[nH]2)cc1` [E-3174], the “Qualitative analysis: metabolism to other compounds” value in the data set on gut microbiota from SHRs and with gut microbiota from WKYs was “neither losartan nor E-3174 was metabolized to other compounds” each time. The Remaining content in the data set on gut microbiota from SHRs (0 h) was 38.21 ± 0.11 µM; with gut microbiota from SHRs (12 h), 39.55 ± 2.13 µM; in the data set with gut microbiota from SHRs (24 h) it was 35.95 ± 1.41 µM; with gut microbiota from SHRs (48 h) it was 27.07 ± 6.32 µM; in the data set with gut microbiota from WKYs (0 h), 37.45 ± 1.33 µM; with gut microbiota from WKYs (12 h), 41.40 ± 1.42 µM. The Remaining content turned out to be 39.27 ± 1.11 µM in the data set on gut microbiota from WKYs (24 h) and 31.95 ± 1.41 µM in the data set with gut microbiota from WKYs (48 h).

As to `CCCCc1nc(Cl)c(CO)n1Cc1ccc(-c2ccccc2-c2nn[nH]n2)cc1` [Losartan, Losartan potassium], the “Qualitative analysis: metabolism to other compounds” value with gut microbiota from SHRs and in the data set on gut microbiota from WKYs was “neither losartan nor E-3174 was metabolized to other compounds” each time. Besides, the Remaining content in the data set on gut microbiota from SHRs (0 h) is 37.62 ± 1.03 µM; with gut microbiota from SHRs (12 h), 38.41 ± 2.14 µM; with gut microbiota from SHRs (24 h), 33.51 ± 2.35 µM; in the data set on gut microbiota from SHRs (48 h) it was 32.98 ± 2.19 µM; in the data set with gut microbiota from WKYs (0 h), 37.78 ± 2.05 µM; with gut microbiota from WKYs (12 h), 36.96 ± 2.06 µM. Further, the figures for the Remaining content in the data set with gut microbiota from WKYs (24 h) and in the data set with gut microbiota from WKYs (48 h) were 36.03 ± 0.78 µM and 33.85 ± 0.96 µM, respectively. The Excreted in feces in data set [1] is reported as roughly 60%. In data set [1], the Excreted in urine entry is given as “approximately 35%”. The “Degradation on exposure to fecal samples” value in the data set with human intestinal flora is listed as “approximately 20%”.
